In ChEMBL document CHEMBL1201862, “PubChem BioAssay data set” (2004):
Calls of active or inactive are those of the source.

Experiments:
Paired box protein Pax-8 = Paired box protein Pax-8 (Homo sapiens, UniProt Q06710); test: PAX8 transcriptional activity inhibition in RMG-I – RMG-I cells, luciferase, cherry-pick, dose response (AID 687027); assay type: functional, cell-based;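 also: luciferase reporter driven by Pax8 target thyroperoxidase promoter measured by SteadyGlo luminescence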
[1] = A2780 cell killing – plate reader, dry powder samples, cytotoxicity control, dose response (AID 743046); assay type: functional, cell-based
[2] = OVCAR8 cell viability loss – plate reader, dry powder samples, PAX8 project, dose response (AID 743197); assay type: functional, cell-based; conditions: OVCAR-8
[3] = PAX5 cellular inhibition readout – cell-based, plate reader, dry powder samples, selectivity assay for PAX8 inhibitor project, dose response (AID 743047); assay type: functional;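 also: HEK293 cells carrying a Pax5 driven CD19 promoter luciferase reporter; potency of inhibitors that lower reporter luminescence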
[4] = inhibitors acting on PAX2 in cells – cell-based, plate reader, dry powder samples, selectivity assay for PAX8 inhibitor project, dose response (AID 743048); assay type: functional;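 also: HEK293 cells carrying a WT1 promoter luciferase reporter driven by expressed Pax2; potency is for inhibition of Pax2 driven reporter signal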
[5] = cytotoxicity in HEK293 background cells – cell-based, dry powder, set 2, counter-screen for EBV LMP1 inhibitor project, dose response (AID 624374); assay type: functional
[6] = COV434 cell viability loss – plate reader, dry powder, SA7, cytotoxicity control for PAX8 inhibitor project, dose response (AID 743145); assay type: functional, cell-based
[7] = PAX8-dependent cell viability loss – plate reader, dry powder, dose response (AID 743049); assay type: functional, cell-based
[8] = viability loss in LCL cells – cell-based, plate reader, dry powder, set 2, cytotoxicity control, dose response (AID 624367); assay type: functional
cells = conditions: HEK293
[9] = Late stage assay provider results from the probe development effort to identify inhibitors of Protein Arginine Deaminase 4 (PAD4): cell-based absorbance-based assay to assess cytotoxicity of test compounds.; assay type: functional
[10] = biological target: 1-phosphatidylinositol 4,5-bisphosphate phosphodiesterase beta-3 (Homo sapiens, UniProt Q01970); test: Fluorescence-based biochemical high throughput dose response assay to identify inhibitors of phospholipase C isozymes (PLC-B3).
1-phosphatidylinositol 4,5-bisphosphate phosphodiesterase beta-3, sequence (Q01970 whole entry): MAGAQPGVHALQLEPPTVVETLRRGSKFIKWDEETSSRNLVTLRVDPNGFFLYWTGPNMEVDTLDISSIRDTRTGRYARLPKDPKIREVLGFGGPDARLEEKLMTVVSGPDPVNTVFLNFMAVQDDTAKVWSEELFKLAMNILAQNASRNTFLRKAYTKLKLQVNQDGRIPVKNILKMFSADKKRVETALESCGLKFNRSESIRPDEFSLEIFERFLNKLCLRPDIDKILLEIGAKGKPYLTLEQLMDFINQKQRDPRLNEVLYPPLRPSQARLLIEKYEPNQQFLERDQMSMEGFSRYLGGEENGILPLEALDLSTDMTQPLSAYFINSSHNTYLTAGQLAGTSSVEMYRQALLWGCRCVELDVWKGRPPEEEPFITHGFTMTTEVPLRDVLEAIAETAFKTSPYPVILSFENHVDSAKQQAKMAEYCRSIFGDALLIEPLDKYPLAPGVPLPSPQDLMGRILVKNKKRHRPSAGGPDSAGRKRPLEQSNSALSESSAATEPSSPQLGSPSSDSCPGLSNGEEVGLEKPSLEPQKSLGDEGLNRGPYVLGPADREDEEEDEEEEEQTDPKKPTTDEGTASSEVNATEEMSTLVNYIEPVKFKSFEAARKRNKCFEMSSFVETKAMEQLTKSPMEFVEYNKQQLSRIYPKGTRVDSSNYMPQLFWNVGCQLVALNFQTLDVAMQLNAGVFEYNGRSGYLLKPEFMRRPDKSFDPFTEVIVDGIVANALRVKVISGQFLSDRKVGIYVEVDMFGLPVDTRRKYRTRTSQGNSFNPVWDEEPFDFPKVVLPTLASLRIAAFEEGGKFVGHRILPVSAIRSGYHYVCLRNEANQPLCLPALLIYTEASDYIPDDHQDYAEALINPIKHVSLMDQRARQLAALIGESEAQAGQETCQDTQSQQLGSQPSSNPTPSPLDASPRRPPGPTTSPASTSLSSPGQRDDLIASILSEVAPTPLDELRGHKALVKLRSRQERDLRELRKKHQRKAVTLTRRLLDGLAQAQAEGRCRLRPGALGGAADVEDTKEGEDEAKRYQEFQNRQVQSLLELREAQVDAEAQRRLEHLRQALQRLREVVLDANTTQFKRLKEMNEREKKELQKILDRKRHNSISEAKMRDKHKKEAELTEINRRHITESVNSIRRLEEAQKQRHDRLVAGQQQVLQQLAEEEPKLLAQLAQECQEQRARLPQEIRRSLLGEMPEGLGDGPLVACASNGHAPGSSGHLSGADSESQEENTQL

[11] = biological target: 1-phosphatidylinositol 4,5-bisphosphate phosphodiesterase gamma-1 (Homo sapiens, UniProt P19174); test: Counterscreen for inhibitors of phospholipase C isozymes (PLC-B3): Fluorescence-based biochemical high throughput dose response assay to identify inhibitors of phospholipase C isozymes (PLC-gamma1).
[12] = biological target: Endoplasmic reticulum aminopeptidase 1 (Homo sapiens, UniProt Q9NZ08); test: inhibition of human ERAP1 enzyme activity – biochemical, cherry-pick, set 2, plate reader, dose response (AID 743314)
Endoplasmic reticulum aminopeptidase 1, sequence (Q9NZ08 whole entry): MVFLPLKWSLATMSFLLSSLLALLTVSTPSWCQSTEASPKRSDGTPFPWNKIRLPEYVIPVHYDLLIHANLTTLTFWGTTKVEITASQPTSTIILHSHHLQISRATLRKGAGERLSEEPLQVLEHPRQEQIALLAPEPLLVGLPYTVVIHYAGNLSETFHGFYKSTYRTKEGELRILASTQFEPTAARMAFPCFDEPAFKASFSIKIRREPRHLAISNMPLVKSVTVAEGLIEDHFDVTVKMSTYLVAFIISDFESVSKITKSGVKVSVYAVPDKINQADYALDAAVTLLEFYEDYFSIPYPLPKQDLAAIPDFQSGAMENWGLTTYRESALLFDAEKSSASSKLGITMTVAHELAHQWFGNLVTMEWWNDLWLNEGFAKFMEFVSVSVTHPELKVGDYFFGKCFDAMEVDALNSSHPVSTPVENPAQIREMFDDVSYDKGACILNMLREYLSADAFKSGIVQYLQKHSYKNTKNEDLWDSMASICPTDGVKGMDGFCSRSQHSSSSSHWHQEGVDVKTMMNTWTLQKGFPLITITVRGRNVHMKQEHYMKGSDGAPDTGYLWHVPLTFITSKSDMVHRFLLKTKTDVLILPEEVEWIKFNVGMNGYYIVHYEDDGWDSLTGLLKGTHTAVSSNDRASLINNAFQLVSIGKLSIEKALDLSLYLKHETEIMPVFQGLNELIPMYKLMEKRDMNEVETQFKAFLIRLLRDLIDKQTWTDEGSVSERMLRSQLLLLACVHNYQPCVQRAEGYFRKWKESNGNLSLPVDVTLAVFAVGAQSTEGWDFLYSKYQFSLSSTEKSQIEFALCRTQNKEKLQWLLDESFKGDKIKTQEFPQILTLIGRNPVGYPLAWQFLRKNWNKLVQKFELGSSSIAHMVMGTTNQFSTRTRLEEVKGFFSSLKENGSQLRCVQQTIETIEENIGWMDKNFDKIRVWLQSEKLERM

[13] = viability loss in HepG2 hepatoma cells – cell-based, cherry-picks, set 5, cytotoxicity control, dose response (AID 1053118); assay type: functional
[14] = viability loss in A549 lung cancer cells – cell-based, cherry-picks, […], cytotoxicity control, dose response (AID 1053119); assay type: functional
[15] = viability loss in HEK293 kidney cells – cell-based, cherry-picks, set 5, cytotoxicity control, dose response (AID 1053117); assay type: functional
Caspase-7 = Caspase-7 (Homo sapiens, UniProt P55210); test: caspase-7 enzyme inhibition, selectivity check – biochemical, DEVD-R110 fluorescence, cherry-pick, selectivity assay for caspase-6 inhibitor project, dose response (AID 743295); assay type: functional
Caspase-7, sequence (P55210 24-198 limits assumed): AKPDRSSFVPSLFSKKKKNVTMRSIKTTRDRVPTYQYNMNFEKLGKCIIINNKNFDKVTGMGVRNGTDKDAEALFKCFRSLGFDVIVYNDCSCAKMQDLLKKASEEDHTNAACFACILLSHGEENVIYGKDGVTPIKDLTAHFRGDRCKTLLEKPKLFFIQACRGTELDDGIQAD
Caspase-7, sequence (P55210 207-303 limits assumed): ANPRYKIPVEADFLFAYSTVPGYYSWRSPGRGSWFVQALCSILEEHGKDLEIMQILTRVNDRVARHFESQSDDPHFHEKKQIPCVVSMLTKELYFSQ

Caspase-6 = biological target: T1, Caspase-6 (Homo sapiens, UniProt P55212); test: inhibition of CASP6 peptide cleavage – biochemical, VEID-R110 fluorescence, cherry-pick, dose response (AID 720632)
T1 sequence (P55212 whole entry): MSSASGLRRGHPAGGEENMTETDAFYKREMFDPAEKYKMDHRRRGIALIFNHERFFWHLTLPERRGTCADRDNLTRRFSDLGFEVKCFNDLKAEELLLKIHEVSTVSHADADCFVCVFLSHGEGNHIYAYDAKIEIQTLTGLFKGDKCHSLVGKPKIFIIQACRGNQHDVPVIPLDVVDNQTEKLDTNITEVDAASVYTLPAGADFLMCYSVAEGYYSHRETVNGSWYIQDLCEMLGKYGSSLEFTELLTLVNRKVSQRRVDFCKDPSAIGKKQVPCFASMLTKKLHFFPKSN

Caspase-3 = biological target: T2, Caspase-3 (Homo sapiens, UniProt P42574); test: human caspase-3 protease activity blockade – biochemical, fluorescence, cherry-picked samples, selectivity assay for caspase-6 allosteric inhibitor project, dose response (AID 743291)
T2 sequence (P42574 whole entry): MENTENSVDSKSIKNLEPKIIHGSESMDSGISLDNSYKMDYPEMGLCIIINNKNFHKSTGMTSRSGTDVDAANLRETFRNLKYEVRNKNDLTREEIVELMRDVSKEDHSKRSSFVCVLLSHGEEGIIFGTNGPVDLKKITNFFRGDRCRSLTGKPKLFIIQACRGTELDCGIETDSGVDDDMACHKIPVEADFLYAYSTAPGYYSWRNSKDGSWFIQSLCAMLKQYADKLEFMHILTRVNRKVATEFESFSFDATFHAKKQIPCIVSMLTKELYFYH

[16] = biological target: Beta-2 adrenergic receptor (Homo sapiens, UniProt P07550); test: ADRB2 activation measured by internalization – cell-based, FAP fluorogen, flow cytometry, cherry pick 1, dose response (AID 588763); assay type: functional
Beta-2 adrenergic receptor, sequence (P07550 whole entry): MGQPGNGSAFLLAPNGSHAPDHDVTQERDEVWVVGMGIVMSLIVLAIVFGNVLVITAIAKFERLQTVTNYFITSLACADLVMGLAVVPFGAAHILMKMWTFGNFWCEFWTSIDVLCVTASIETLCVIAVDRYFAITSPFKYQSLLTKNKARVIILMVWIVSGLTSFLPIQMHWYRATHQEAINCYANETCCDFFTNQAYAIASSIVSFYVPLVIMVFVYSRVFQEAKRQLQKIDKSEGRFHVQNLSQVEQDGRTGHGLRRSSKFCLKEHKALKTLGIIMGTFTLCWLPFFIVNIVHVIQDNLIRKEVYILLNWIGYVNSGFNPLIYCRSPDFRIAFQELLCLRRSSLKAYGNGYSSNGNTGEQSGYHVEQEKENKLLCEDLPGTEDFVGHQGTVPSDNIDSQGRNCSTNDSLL

Genome polyprotein = Genome polyprotein (dengue virus type 2, UniProt P29990); test: flavivirus cap methylation enzyme inhibition – biochemical, confirmation dose response, primary screen (AID 588689); assay type: functional
Genome polyprotein, sequence (P29990 2492-3391 limits assumed): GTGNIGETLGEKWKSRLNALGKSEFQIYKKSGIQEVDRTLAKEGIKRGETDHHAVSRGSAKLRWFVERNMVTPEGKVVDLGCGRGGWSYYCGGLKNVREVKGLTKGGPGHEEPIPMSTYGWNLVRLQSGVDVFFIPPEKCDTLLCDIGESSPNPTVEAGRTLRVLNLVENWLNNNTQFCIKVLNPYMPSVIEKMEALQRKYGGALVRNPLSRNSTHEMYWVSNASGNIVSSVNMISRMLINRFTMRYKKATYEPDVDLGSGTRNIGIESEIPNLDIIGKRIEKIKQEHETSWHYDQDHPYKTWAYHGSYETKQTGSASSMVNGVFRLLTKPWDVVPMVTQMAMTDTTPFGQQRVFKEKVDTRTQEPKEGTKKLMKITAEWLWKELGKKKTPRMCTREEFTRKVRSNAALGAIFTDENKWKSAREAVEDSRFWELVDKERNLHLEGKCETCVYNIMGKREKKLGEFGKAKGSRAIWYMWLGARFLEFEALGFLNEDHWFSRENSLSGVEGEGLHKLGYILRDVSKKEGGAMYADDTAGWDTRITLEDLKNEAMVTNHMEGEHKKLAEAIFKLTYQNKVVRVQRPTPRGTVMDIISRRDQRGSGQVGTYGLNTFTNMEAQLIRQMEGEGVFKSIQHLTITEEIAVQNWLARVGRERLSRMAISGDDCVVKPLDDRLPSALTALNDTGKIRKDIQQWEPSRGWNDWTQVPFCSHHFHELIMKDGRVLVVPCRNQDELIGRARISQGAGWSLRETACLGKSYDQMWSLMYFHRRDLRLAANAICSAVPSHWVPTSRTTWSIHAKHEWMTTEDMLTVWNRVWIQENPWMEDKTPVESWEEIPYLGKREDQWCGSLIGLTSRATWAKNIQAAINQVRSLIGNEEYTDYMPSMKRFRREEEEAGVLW

HEK293 = test: EBV LMP1 TES2 canonical NF-kB signalling blockers – cell-based, HEK293, luciferase, cherry-pick, dose response (AID 588343); assay type: functional; conditions: Homo sapiens
[17] = COV362 cell viability loss – plate reader, dry powder, SA12, cytotoxicity control for PAX8 inhibitor project, dose response (AID 743144); assay type: functional, cell-based
[18] = toxicity toward immortalized ovarian surface epithelium – cell-based, plate reader, dry powder samples, cytotoxicity control for PAX8 inhibitor project, dose response (AID 743045); assay type: functional
[19] = non-specific 3'UTR reporter inhibition in Clone20-Shn3RL – cell-based, Renilla luciferase, cherry-picked, counter-screen for Shn3 inhibitor project, dose response (AID 624133); assay type: functional
[20] = OV-90 cell viability loss – plate reader, dry powder, SA8, PAX8 inhibitor project, dose response (AID 743149); assay type: functional, cell-based
[21] = A549 cell cytotoxicity, dose response, cytotoxicity control, plate reader, cherry-pick, antagonist series (AID 743412); assay type: functional, cell-based
[22] = blockade of melanocortin 4 receptor signaling – cell-based, plate reader, cherry pick, counter-screen for LGR2 antagonist project, dose response (AID 743444); assay type: functional;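 also: transfected HEK 293 cells stimulated with alpha-MSH peptide; potency of inhibitors of the alpha-MSH evoked signal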
[23] = Shn3 3'UTR reporter signal decrease – cell-based, Clone20 osteoblasts, firefly luciferase, cherry-pick, set 2, Schnurri-3 inhibitor project, dose response (AID 720490); assay type: functional;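 also: actives lower the luminescence signal as inhibitors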
[24] = blockers of bursicon-stimulated LGR2 cAMP reporter – cell-based, HEK293, CRE-luciferase reporter, cherry pick, set 2, dose response (AID 743343); assay type: functional;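 also: transfected cells were stimulated with diluted bursicon conditioned medium after compound addition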
[25] = reduction of Shn3 3'UTR-driven luciferase in osteoblasts – cell-based, Clone20 osteoblasts, firefly luciferase, cherry-picked, dose response (AID 624132); assay type: functional;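 also: firefly luciferase luminescence from reporter carrying the Shn3 3'UTR in osteoblasts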
[26] = inhibitors of non-replicating M. tuberculosis, dose response, luciferase, dry powder (AID 651619); assay type: functional; conditions: Mycobacterium tuberculosis

Paired box protein Pax-8, sequence (Q06710 whole entry): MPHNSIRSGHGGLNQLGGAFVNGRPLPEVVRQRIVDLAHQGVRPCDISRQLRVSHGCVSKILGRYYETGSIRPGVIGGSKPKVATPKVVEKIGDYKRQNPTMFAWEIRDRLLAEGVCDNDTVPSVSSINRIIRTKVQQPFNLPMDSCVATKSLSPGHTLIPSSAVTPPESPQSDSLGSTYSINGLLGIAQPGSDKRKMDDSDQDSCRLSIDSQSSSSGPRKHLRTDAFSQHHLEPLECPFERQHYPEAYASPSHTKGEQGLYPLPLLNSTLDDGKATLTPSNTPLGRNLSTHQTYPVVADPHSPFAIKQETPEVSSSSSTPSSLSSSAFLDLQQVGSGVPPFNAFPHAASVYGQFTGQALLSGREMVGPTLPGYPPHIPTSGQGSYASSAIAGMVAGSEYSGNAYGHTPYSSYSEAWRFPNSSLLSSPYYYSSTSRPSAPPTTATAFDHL

For `COc1cccc(C#Cc2ccc([C@@H]3[C@H](C#N)N(C(=O)c4ccccn4)[C@H]3CO)cc2)c1`, the AC50 (Paired box protein Pax-8) was 11.9 µM (active), the AC50 [1] was 12.7 µM (active) and the AC50 [2] was 63.7 µM (active). The AC50 [3] was > 70 µM (inactive), the AC50 [4] was > 70 µM (inactive) and the AbsAC35 [5] was 296.86 µM. For the same molecule, the AC50 [6] was > 70 µM (inactive), the AC50 [7] was 35.1 µM (active) and the AbsAC35 [8] was 55.61 µM.

In the case of `CCOCCCN=C(S)N1CCCN(c2nc3cc(C)c(C)cc3cc2C#N)CC1`, the AC50 (cells) is reported as > 52 µM (inactive).

In the case of `NC1=CC(=O)c2ccc(-c3cccc(C(=O)O)n3)nc2C1=O`, the CC50 [9] is reported as 26.5 µM (inactive).

In the case of `O=C1C[S+]([O-])CN1c1ccc(Oc2ccccc2)cc1` (stereo not drawn), the IC50 [10] is reported as > 122 µM (inactive) and the IC50 [11] is reported as 12.5 µM (inactive).

With `CCC(=O)N1[C@@H]2c3ccc(/C=C/c4ccccc4)c(=O)n3C[C@H]1[C@H](CO)[C@H]2C(=O)N(C)C` the AC50 [12] was 9.44 µM (active).

For `C[C@H](CO)N1C[C@H](C)[C@@H](CN(C)C(=O)Nc2cccc3ccccc23)Oc2c(NC(=O)Nc3ccc(C(F)(F)F)cc3)cccc2C1=O`, the AC50 [13] was 34.4 µM (active), the AC50 [14] was > 52 µM (inactive) and the AC50 [15] was > 52 µM (inactive).

In the case of `CC(Cc1ccc(O)cc1)NCC(O)c1ccc(O)c(O)c1` (stereo not drawn), the AC50 (Caspase-7) is reported as > 70 µM (inactive), the AC50 (Caspase-6) is reported as 3.68 µM (active) and the AC50 (Caspase-3) is reported as 24.5 µM (active). For the same molecule, the EC50 [16] was 0.553 µM (active) and the IC50 (Genome polyprotein) was > 100 µM (active).

With `CCCn1c(C)cc(C(=O)CN2C(=O)c3ccccc3S2(=O)=O)c1C` the AC50 (HEK293) was 0.211 µM (active), the AC50 (Paired box protein Pax-8) was 3.55 µM (active) and the AC50 [17] was 77.7 µM (active). For the same molecule, the AC50 [18] was 81.2 µM (active), the AC50 [19] was 26.8 µM (active) and the AC50 [3] was 3.24 µM (active). The AC50 [4] was 4.42 µM (active), the AC50 [20] was 82.5 µM (active) and the AC50 [21] was > 52 µM (inactive). The AC50 [22] was 0.798 µM (active), the AC50 [23] was 9.79 µM (active) and the AC50 [24] was 0.69 µM (active). The AC50 [6] was > 100 µM (inactive), the AC50 [7] was 55.7 µM (active) and the AC50 [25] was 2.98 µM (active).

In the case of `[N-]=[N+]=NCCOCCNC(=O)CCCn1cc(C[S+]([O-])c2nnc(-c3ccc(F)cc3)o2)nn1` (stereo not drawn), the IC90 [26] is reported as 125 µM (active).
